Measured values published in PMC8159961, “Exploring protein hotspots by optimized fragment pharmacophores” (Nature Communications, 2021).
Several values for one entry are separate records, joined by “and”; a condition that tells them apart may be missing. Equal values may be shown once. Read-outs that look alike come from different tables or passages of the source.

Tests used:
recombinant SETD2 = target: T1, recombinant SETD2 (Homo sapiens, UniProt Q9BYW2); test: SETD2 Chemiluminescence assay (H3K36 tri-methylation); type: biochemical; conditions: for experimental hit status, SETD2: 1 = hit, 0 = no hit; for SETD2 signal normalised to positive control and internally to compound: nM], replicates
T1 construct: purchased BPS Bioscience 52060
T1 sequence (Q9BYW2 1418-1714 limits assumed): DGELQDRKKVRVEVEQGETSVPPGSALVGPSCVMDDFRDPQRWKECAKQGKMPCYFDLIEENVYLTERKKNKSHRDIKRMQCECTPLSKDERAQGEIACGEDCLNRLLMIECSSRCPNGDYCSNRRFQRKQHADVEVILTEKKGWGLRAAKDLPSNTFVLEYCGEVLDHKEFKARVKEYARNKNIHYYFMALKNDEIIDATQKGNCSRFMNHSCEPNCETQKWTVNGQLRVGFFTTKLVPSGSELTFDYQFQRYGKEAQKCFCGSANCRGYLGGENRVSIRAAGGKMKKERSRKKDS

human thrombin = target: T2, human thrombin (Homo sapiens, UniProt P00734); test: Protease inhibitory assay, chromogenic substrate S-2238; type: biochemical; conditions: for experimental hit status, Thrombin: 1 = hit, 0 = no hit, screening at 200 µM; for vinit: replicate values
T2 construct: human thrombin; purchased Sigma-Aldrich

bovine factor Xa = target: T3, bovine factor Xa (Bos taurus, UniProt P00743); test: Protease inhibitory assay, chromogenic substrate S-2222; type: biochemical; conditions: for experimental hit status, Factor Xa: 1 = hit, 0 = no hit, screening at 200 µM; for vinit: replicate values
T3 construct: bovine factor Xa, Chromogenix, 2 nkat/mL; purchased Chromogenix
T3 sequence (P00743 234-492 limits assumed): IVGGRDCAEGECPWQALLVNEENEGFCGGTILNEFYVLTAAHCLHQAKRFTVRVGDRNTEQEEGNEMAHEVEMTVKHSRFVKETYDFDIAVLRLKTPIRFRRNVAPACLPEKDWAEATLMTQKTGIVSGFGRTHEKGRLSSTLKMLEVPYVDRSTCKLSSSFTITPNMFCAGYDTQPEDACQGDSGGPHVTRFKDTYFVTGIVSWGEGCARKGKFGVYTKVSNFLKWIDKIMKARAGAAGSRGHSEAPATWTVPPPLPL
T3 sequence (P00743 41-180 partner limits assumed): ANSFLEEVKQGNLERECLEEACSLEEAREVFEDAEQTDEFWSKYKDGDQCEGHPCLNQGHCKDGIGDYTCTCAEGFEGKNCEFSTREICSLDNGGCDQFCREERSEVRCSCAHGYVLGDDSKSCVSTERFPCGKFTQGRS

human 5-HT6 receptor = target: T4, human 5-HT6 receptor (Homo sapiens, UniProt P50406); test: GPCR radioligand binding assay, [3H]-LSD displacement, HEK293 membranes; conditions: for experimental hit status, 5-HT6: 1 = hit, 0 = no hit, tested at 10 µM, hit = 50% or stronger inhibition
T4 construct: expressed in transfected cells
T4 sequence (P50406 whole entry): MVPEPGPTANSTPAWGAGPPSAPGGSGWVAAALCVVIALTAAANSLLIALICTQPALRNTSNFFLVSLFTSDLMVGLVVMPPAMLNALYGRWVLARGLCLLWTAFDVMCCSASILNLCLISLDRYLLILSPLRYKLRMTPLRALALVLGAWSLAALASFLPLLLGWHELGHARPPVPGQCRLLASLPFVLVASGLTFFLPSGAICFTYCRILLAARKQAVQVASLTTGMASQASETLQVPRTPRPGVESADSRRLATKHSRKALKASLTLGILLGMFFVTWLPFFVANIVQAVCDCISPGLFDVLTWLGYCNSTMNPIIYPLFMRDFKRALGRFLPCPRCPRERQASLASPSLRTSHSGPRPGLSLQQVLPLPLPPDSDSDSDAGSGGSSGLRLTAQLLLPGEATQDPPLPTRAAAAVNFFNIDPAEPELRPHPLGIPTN

human 5-HT1A receptor = target: T5, human 5-HT1A receptor (Homo sapiens, UniProt P08908); test: GPCR radioligand binding assay, [3H]-8-OH-DPAT displacement, HEK293 membranes; conditions: for experimental hit status, 5-HT1: 1 = hit, 0 = no hit, tested at 10 µM, hit = 50% or stronger inhibition
T5 construct: expressed in transfected cells
T5 sequence (P08908 1-422): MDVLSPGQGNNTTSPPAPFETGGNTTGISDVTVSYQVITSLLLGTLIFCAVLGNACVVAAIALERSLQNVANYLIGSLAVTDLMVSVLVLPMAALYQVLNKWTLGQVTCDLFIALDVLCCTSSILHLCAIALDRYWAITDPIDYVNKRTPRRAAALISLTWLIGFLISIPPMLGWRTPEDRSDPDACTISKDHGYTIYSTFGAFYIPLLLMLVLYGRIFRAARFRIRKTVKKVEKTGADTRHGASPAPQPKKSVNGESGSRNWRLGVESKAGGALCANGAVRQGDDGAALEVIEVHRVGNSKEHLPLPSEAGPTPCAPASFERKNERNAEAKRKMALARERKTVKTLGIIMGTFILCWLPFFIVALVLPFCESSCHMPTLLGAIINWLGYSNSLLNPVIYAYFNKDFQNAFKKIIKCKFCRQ

human 5-HT7b receptor = target: T6, human 5-HT7b receptor (Homo sapiens, UniProt P34969); test: GPCR radioligand binding assay, [3H]-5-CT displacement, HEK293 membranes; conditions: for experimental hit status, 5-HT7: 1 = hit, 0 = no hit, tested at 10 µM, hit = 50% or stronger inhibition
T6 construct: expressed in transfected cells
T6 sequence (P34969 1-432): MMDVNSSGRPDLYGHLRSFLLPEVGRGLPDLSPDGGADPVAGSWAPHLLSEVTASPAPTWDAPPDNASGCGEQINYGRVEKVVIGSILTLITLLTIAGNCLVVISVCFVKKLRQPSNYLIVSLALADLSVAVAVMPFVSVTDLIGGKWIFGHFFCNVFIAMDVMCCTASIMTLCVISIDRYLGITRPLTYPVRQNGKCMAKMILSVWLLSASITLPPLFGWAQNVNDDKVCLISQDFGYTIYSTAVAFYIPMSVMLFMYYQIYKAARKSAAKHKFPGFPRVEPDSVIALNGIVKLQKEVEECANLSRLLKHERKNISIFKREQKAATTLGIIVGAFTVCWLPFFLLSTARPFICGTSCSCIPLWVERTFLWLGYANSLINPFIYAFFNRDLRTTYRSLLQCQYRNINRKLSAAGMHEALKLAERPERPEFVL

[1] = 10 µM, read-out: 5-HT6 % Inhibition by plate position
[2] = 5-HT6, average of exp_1 and exp_2, read-out: %inh 5-HT6 average
[3] = 5-HT6, average, values below 0 and above 100% were set as 0 and 100, read-out: %inh 5-HT6 corrected*
[4] = 5-HT6, replicate exp_1, read-out: %inh 5-HT6 exp_1
[5] = 5-HT6, replicate exp_2, read-out: %inh 5-HT6 exp_2
[6] = 10 µM, read-out: 5-HT1A % Inhibition by plate position
[7] = 5-HT1A, average of exp_1 and exp_2, read-out: %inh 5-HT1A average
[8] = 5-HT1A, average, values below 0 and above 100% were set as 0 and 100, read-out: %inh 5-HT1A corrected*
[9] = 5-HT1A, replicate exp_1, read-out: %inh 5-HT1A exp_1
[10] = 5-HT1A, replicate exp_2, read-out: %inh 5-HT1A exp_2
[11] = 10 µM, read-out: 5-HT7 % Inhibition by plate position
[12] = 5-HT7, average of exp_1 and exp_2, read-out: %inh 5-HT7 average
[13] = 5-HT7, average, values below 0 and above 100% were set as 0 and 100, read-out: %inh 5-HT7 corrected*
[14] = 5-HT7, replicate exp_1, read-out: %inh 5-HT7 exp_1
[15] = 5-HT7, replicate exp_2, read-out: %inh 5-HT7 exp_2
[16] = plate layout, label = plate position, Cheng-Prusoff, Km 2.6 µM, read-out: Thrombin Ki
[17] = Thrombin Ki determination, substrate 20 µM, cmpd conc 200 µM
[18] = Thrombin Ki determination, substrate 40 µM, cmpd conc 200 µM
[19] = Thrombin primary screening, substrate 40 µM, cmpd conc 500 µM
[20] = FactorXa primary screening, substrate 100 µM, cmpd conc 200 µM
[21] = FactorXa Ki determination, substrate 100 µM, cmpd conc 200 µM
[22] = FactorXa Ki determination, substrate 200 µM, cmpd conc 200 µM

SMILES | experimental hit status, SETD2 (recombinant SETD2) | inhibition at 10 µM (human 5-HT6 receptor; [1]) [%] | inhibition at 10 µM (human 5-HT6 receptor; [2]) [%] | inhibition at 10 µM (human 5-HT6 receptor; [3]) [%] | inhibition at 10 µM (human 5-HT6 receptor; [4]) [%] | inhibition at 10 µM (human 5-HT6 receptor; [5]) [%] | inhibition at 10 µM (human 5-HT1A receptor; [6]) [%] | inhibition at 10 µM (human 5-HT1A receptor; [7]) [%] | inhibition at 10 µM (human 5-HT1A receptor; [8]) [%] | inhibition at 10 µM (human 5-HT1A receptor; [9]) [%] | inhibition at 10 µM (human 5-HT1A receptor; [10]) [%] | inhibition at 10 µM (human 5-HT7b receptor; [11]) [%] | inhibition at 10 µM (human 5-HT7b receptor; [12]) [%] | inhibition at 10 µM (human 5-HT7b receptor; [13]) [%] | inhibition at 10 µM (human 5-HT7b receptor; [14]) [%] | inhibition at 10 µM (human 5-HT7b receptor; [15]) [%] | V0 / Vi (human thrombin; [19]) | vinit (human thrombin; [19]) | V0 / Vi (bovine factor Xa; [20]) | vinit (bovine factor Xa; [20]) | other results
Cc1cc2ccccc2nc1N [SX001] | 0 | 33 | 33 | 33 | 29 | 37 | 0 | -13 | 0 | -0.697 | -25 | 1.66 | 1.66 | 1.66 | 7 | -3.75 | – | – | – | – | experimental hit status, Thrombin (human thrombin): 0; Ki (bovine factor Xa): 149 µM; experimental hit status, Factor Xa (bovine factor Xa): 1; experimental hit status, 5-HT6 (human 5-HT6 receptor): 0; experimental hit status, 5-HT1 (human 5-HT1A receptor): 0; experimental hit status, 5-HT7 (human 5-HT7b receptor): 0
c1cnc2cccnc2c1 [SX002] | 0 | 24 | 24 | 24 | 27 | 21 | 0 | -0.719 | 0 | -9 | 8 | 35 | 35 | 35 | 39 | 31 | – | – | – | – | experimental hit status, Thrombin (human thrombin): 1; Ki (human thrombin; [16]): 163 µM; experimental hit status, Factor Xa (bovine factor Xa): 0; experimental hit status, 5-HT6 (human 5-HT6 receptor): 0; experimental hit status, 5-HT1 (human 5-HT1A receptor): 0; experimental hit status, 5-HT7 (human 5-HT7b receptor): 0
c1ccc2[nH]ccc2c1 [SX004] | 0 | – | – | – | – | – | – | – | – | – | – | – | – | – | – | – | – | – | – | – | experimental hit status, Thrombin (human thrombin): 0; experimental hit status, Factor Xa (bovine factor Xa): 0; experimental hit status, 5-HT6 (human 5-HT6 receptor): 0; inhibition at 10 µM (human 5-HT6 receptor; read-out: 5-HT6 % Inhibition by plate position): 16%; inhibition at 10 µM (human 5-HT6 receptor; read-out: %inh 5-HT6 average): 16%; inhibition at 10 µM (human 5-HT6 receptor; read-out: %inh 5-HT6 corrected*): 16%; inhibition at 10 µM (human 5-HT6 receptor; read-out: %inh 5-HT6 exp_1): 16%; inhibition at 10 µM (human 5-HT6 receptor; read-out: %inh 5-HT6 exp_2): 16%; experimental hit status, 5-HT1 (human 5-HT1A receptor): 0; inhibition at 10 µM (human 5-HT1A receptor; read-out: 5-HT1A % Inhibition by plate position): 0%; inhibition at 10 µM (human 5-HT1A receptor; read-out: %inh 5-HT1A average): -11%; inhibition at 10 µM (human 5-HT1A receptor; read-out: %inh 5-HT1A corrected*): 0%; inhibition at 10 µM (human 5-HT1A receptor; read-out: %inh 5-HT1A exp_1): -0.425%; inhibition at 10 µM (human 5-HT1A receptor; read-out: %inh 5-HT1A exp_2): -21%; experimental hit status, 5-HT7 (human 5-HT7b receptor): 0; inhibition at 10 µM (human 5-HT7b receptor; read-out: 5-HT7 % Inhibition by plate position): 0%; inhibition at 10 µM (human 5-HT7b receptor; read-out: %inh 5-HT7 average): -2.64%; inhibition at 10 µM (human 5-HT7b receptor; read-out: %inh 5-HT7 corrected*): 0%; inhibition at 10 µM (human 5-HT7b receptor; read-out: %inh 5-HT7 exp_1): 19%; inhibition at 10 µM (human 5-HT7b receptor; read-out: %inh 5-HT7 exp_2): -24%
CC(=O)c1sc(-c2ccc(O)cc2)nc1C [E1] | – | 65 | 65 | 65 | 71 | 58 | 0 | -8.44 | 0 | 1.63 | -19 | 43 | 43 | 43 | 36 | 50 | – | – | – | – | Ki (human thrombin; [16]): 229 µM; Ki (bovine factor Xa): 734 µM
CS(=O)(=O)Nc1ccc(C(=O)O)cc1 [SX084] | – | 38 | 38 | 38 | 38 | 38 | 9 | 9 | 9 | 9 | 9 | 9 | 9 | 9 | 5.33 | 13 | – | – | – | – | IC50 (recombinant SETD2; chemiluminescence-based enzymatic assay): 500 µM; SETD2 signal normalised to positive control and internally to compound (recombinant SETD2; fragment concentration 4.7 [log): 1.05 and 0.84; SETD2 signal normalised to positive control and internally to compound (recombinant SETD2; fragment concentration 5 [log): 0.76 and 0.6; SETD2 signal normalised to positive control and internally to compound (recombinant SETD2; fragment concentration 5.3 [log): 0.62 and 0.74; SETD2 signal normalised to positive control and internally to compound (recombinant SETD2; fragment concentration 5.6 [log): 0.8 and 0.95; SETD2 signal normalised to positive control and internally to compound (recombinant SETD2; fragment concentration 5.9 [log): 0.66 and 0.73
O=C(O)c1cnc(-c2ccccc2)s1 [SX-F3] | – | – | – | – | – | – | – | – | – | – | – | – | – | – | – | – | 1.06 | 26.545 and 28.873 | 1.02 | 17.382 and 16.873 | V0 / Vi (human thrombin; [17]): 1.08; vinit, avrg. (human thrombin; [17]): 24.620; vinit (human thrombin; [17]): 23.206 and 25.134 and 25.52; V0 / Vi (human thrombin; [18]): 1.05; vinit, avrg. (human thrombin; [18]): 32.167; vinit (human thrombin; [18]): 32.686 and 32.577 and 31.24; Ki (human thrombin; Thrombin, substrate 20 µM, cmpd conc 200 µM, one of two values averaged in Supplementary Data 1, read-out: Ki): 297 µM; Ki (human thrombin; Thrombin, substrate 40 µM, cmpd conc 200 µM, one of two values averaged in Supplementary Data 1, read-out: Ki): 245 µM
O=C1CSC(Nc2ccc(F)cc2)=N1 [SX-H10] | – | – | – | – | – | – | – | – | – | – | – | – | – | – | – | – | 1.13 | 26.786 and 28.857 | 1.14 | 14.6 and 13.3 | –
Nc1ccc(-c2ccccc2)cc1C(=O)O [SX-G9] | – | – | – | – | – | – | – | – | – | – | – | – | – | – | – | – | 1.08 | 29.309 and 31.745 | 1.04 | 16.3 | –
COc1ccccc1CC1CCNCC1.Cl [SX-B12] | – | – | – | – | – | – | – | – | – | – | – | – | – | – | – | – | 0.97 | 32.327 and 32.218 | 1.35 | 10.3 and 11.164 | V0 / Vi (bovine factor Xa; [21]): 1.28; vinit, avrg. (bovine factor Xa; [21]): 12.727; vinit (bovine factor Xa; [21]): 13.1265 and 12.596 and 12.46; V0 / Vi (bovine factor Xa; [22]): 1.25; vinit (bovine factor Xa; [22]): 26.514 and 31.33 and 29.51; Ki (bovine factor Xa; FactorXa, substrate 100 µM, cmpd conc 200 µM, one of two values averaged in Supplementary Data 1, read-out: Ki): 445 µM; Ki (bovine factor Xa; FactorXa, substrate 200 µM, cmpd conc 200 µM, one of two values averaged in Supplementary Data 1, read-out: Ki): 357 µM
